Results on eleven molecules are retold here after PubChem BioAssay (NCI).

Some test systems named below: ACHN renal; BT-549 breast; CAKI-1 renal; K-562 leukemia; KM12 colon; MDA-MB-231 breast; MDA-MB-435; OVCAR-3 ovarian; SF-539 CNS; SK-MEL-28 melanoma; SK-OV-3 ovarian; UACC-62 melanoma.
Holding throughout (assay): NCI anticancer screen, dose series, 48 h

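Briefly, cells in 96-well plates were exposed to five compound concentrations for 48 h, and endpoints were estimated by linear interpolation. GI50: concentration for 50% inhibition of growth. TGI marks complete inhibition of growth.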

Regarding `O=c1oc2cc(O)ccc2cc1-c1nc2ccccc2s1`, the TGI in the assay on ACHN renal was 52.4 µM; with BT-549 breast, 51 µM; with CAKI-1 renal it was 74.6 µM; with K-562 leukemia it was greater than 100 µM; in the assay with KM12 colon, greater than 100 µM; in the assay on MDA-MB-231 breast, 53.6 µM. Besides, the TGI in the assay on MDA-MB-435 was 90.1 µM; in the assay with OVCAR-3 ovarian it was 45.6 µM; in the assay on SF-539 CNS, 46.6 µM; in the assay on SK-MEL-28 melanoma, greater than 100 µM; in the assay with SK-OV-3 ovarian, 78.1 µM; in the assay on UACC-62 melanoma it was 41.7 µM.
On to `Cn1c(=O)c2c(ncn2CCSS(=O)(=O)O)n(C)c1=O`, for which the TGI in the assay on ACHN renal, in the assay with BT-549 breast, in the assay on CAKI-1 renal, in the assay with K-562 leukemia, in the assay on KM12 colon and in the assay with MDA-MB-231 breast was greater than 100 µM each time. The TGI in the assay on MDA-MB-435, with OVCAR-3 ovarian, in the assay with SF-539 CNS, in the assay with SK-MEL-28 melanoma, in the assay with SK-OV-3 ovarian and in the assay on UACC-62 melanoma was greater than 100 µM throughout.
For `O=C1C=CC[C@H](/C=C/C[C@@H](O)C[C@H](O)/C=C/c2ccccc2)O1`, the TGI with ACHN renal is 27.8 µM; in the assay on BT-549 breast, 23.6 µM; in the assay on CAKI-1 renal, 19.9 µM; with K-562 leukemia, 42.3 µM; with KM12 colon it was 24.7 µM; in the assay with MDA-MB-231 breast, 22.2 µM. For the same molecule, the TGI amounted to 23.4 µM in the assay with MDA-MB-435; 23.7 µM with OVCAR-3 ovarian; 21.5 µM in the assay with SF-539 CNS; 30.8 µM with SK-MEL-28 melanoma; 28.3 µM in the assay on SK-OV-3 ovarian; 29.4 µM in the assay with UACC-62 melanoma.
With `CC(C)c1ccc2c(c1)C=C1OC(=O)[C@]3(C)CCC[C@@]2(C)C13` (some centres undefined), the TGI in the assay on ACHN renal, in the assay on BT-549 breast, in the assay on CAKI-1 renal, in the assay on K-562 leukemia, in the assay on KM12 colon and in the assay on MDA-MB-231 breast was greater than 100 µM in each case. In addition, the TGI with MDA-MB-435, in the assay with OVCAR-3 ovarian, with SF-539 CNS, with SK-MEL-28 melanoma, with SK-OV-3 ovarian and with UACC-62 melanoma was greater than 100 µM throughout.
On to `NC1=NN(c2ccccc2)C2(c3ccncc3C(=O)O)C1C(N)=NN2c1ccccc1` (centres undefined), for which the TGI with ACHN renal, in the assay on BT-549 breast, in the assay on CAKI-1 renal, with K-562 leukemia, in the assay on KM12 colon and in the assay on MDA-MB-231 breast was greater than 100 µM each time. Further, the TGI in the assay on MDA-MB-435, in the assay with OVCAR-3 ovarian, in the assay with SF-539 CNS, with SK-MEL-28 melanoma, in the assay on SK-OV-3 ovarian and in the assay on UACC-62 melanoma was greater than 100 µM throughout.
On to `CC(=O)[O-].[Ni].c1ccc(/C(=N\Nc2ccccn2)c2ccccn2)cc1`, for which the TGI amounted to 53 µM in the assay with ACHN renal; 45.1 µM with BT-549 breast; 39.3 µM in the assay on CAKI-1 renal; 28.1 µM in the assay with K-562 leukemia; 23.1 µM in the assay on KM12 colon; 22.8 µM with MDA-MB-231 breast. The TGI came out at 22.4 µM in the assay with MDA-MB-435; 19.5 µM with OVCAR-3 ovarian; 24.7 µM with SF-539 CNS; 18.8 µM in the assay with SK-MEL-28 melanoma; 43.2 µM in the assay with SK-OV-3 ovarian; 18.8 µM in the assay with UACC-62 melanoma. Besides, the GI50 with MDA-MB-231 breast was 6.01 µM; in the assay with OVCAR-3 ovarian it was 0.0385 µM.
`CC1(C)O[C@H]2[C@@H]3N=C(c4ccccc4)O[C@@H]3C=C[C@H]2O1`: the TGI in the assay on ACHN renal, in the assay with BT-549 breast, in the assay with CAKI-1 renal, in the assay on K-562 leukemia, in the assay on KM12 colon and in the assay on MDA-MB-231 breast was greater than 100 µM in each case. The TGI in the assay on MDA-MB-435, with OVCAR-3 ovarian, with SF-539 CNS, in the assay with SK-MEL-28 melanoma, in the assay with SK-OV-3 ovarian and in the assay with UACC-62 melanoma was greater than 100 µM throughout.
Regarding `COc1cc(-c2c3c([nH]c(=O)c2C#N)-c2cc([N+](=O)[O-])ccc2CCC3)cc(OC)c1OC`, the TGI with ACHN renal is 70.6 µM; with BT-549 breast, 61.3 µM; with CAKI-1 renal, 87.9 µM; in the assay on K-562 leukemia, greater than 100 µM; in the assay with KM12 colon, greater than 100 µM; with MDA-MB-231 breast it was 79.2 µM. For the same molecule, the TGI is greater than 100 µM in the assay on MDA-MB-435; 46.3 µM in the assay on OVCAR-3 ovarian; greater than 100 µM with SF-539 CNS; greater than 100 µM with SK-MEL-28 melanoma; 66.4 µM in the assay with SK-OV-3 ovarian; 32.1 µM with UACC-62 melanoma.
For `CC(=O)Nc1ccc(S(=O)(=O)[N-]C2C(=O)c3ccccc3C(=O)C2[n+]2ccccc2)cc1` (centres undefined), the TGI in the assay with ACHN renal is 30.7 µM; in the assay with BT-549 breast, 13.4 µM; with CAKI-1 renal, greater than 100 µM; in the assay on K-562 leukemia it was greater than 100 µM; in the assay with KM12 colon it was 27.9 µM; in the assay on MDA-MB-231 breast, greater than 100 µM. Moreover, the TGI in the assay on MDA-MB-435 is 14.9 µM; in the assay on OVCAR-3 ovarian it was 32.3 µM; with SF-539 CNS, 33.3 µM; in the assay with SK-MEL-28 melanoma it was 30.1 µM; in the assay with SK-OV-3 ovarian, greater than 100 µM; in the assay with UACC-62 melanoma, 28.9 µM.
With `O=C(N/N=C/C=C/c1ccc([N+](=O)[O-])o1)c1ccc(Br)s1`, the TGI was 38.7 µM in the assay with ACHN renal; 51.8 µM in the assay on BT-549 breast; 66.2 µM in the assay on CAKI-1 renal; greater than 100 µM with K-562 leukemia; 40.5 µM with KM12 colon; 64.9 µM in the assay with MDA-MB-231 breast. The TGI in the assay on MDA-MB-435 is 83.6 µM; with OVCAR-3 ovarian, 41.7 µM; in the assay with SF-539 CNS, 74.5 µM; in the assay with SK-MEL-28 melanoma, 52.3 µM; in the assay with SK-OV-3 ovarian it was greater than 100 µM; with UACC-62 melanoma it was 49.5 µM.
Consider `O=c1c2ccccc2c2c1c1c3ccccc3c(=O)c1c1c3ccccc3c(=O)c21`, for which the TGI in the assay on ACHN renal, with BT-549 breast, in the assay on CAKI-1 renal, in the assay on K-562 leukemia, in the assay with KM12 colon and in the assay on MDA-MB-231 breast was greater than 100 µM each time. The TGI in the assay with MDA-MB-435, in the assay with OVCAR-3 ovarian, in the assay with SF-539 CNS, with SK-MEL-28 melanoma, with SK-OV-3 ovarian and in the assay on UACC-62 melanoma was greater than 100 µM each time.
